Measured values taken from patent US10588280B2, “Aided delivery of plant treatment agents” (Monsanto Technology LLC, priority 2014, dated 2020).

Key:
[1] = system: haploid seedlings derived from corn inbred 91DUQ1 or 83IDI1 (SAM); experiment: Example 8: serial centrifugation with colchicine, unsubmerged spin at 340 g to 2000 g; type: in vivo; settings: 1250 ppm colchicine, submerged 50 g 3 min
Text: F1 hybrid-derived haploid seedlings derived from either female corn inbred line 91DUQ1 or male corn inbred line 83IDI1 were germinated in soil in a greenhouse in standard maize growing conditions and grown to the V1-V2 growth stage (1 week after planting). Seedlings were then removed from the soil, rinsed to remove residual soil, and partitioned into 5 samples comprising several dozen seedlings each.
This bundled PCS sample was placed into a centrifuge container, roots first. Each plant of the other four samples were individually wrapped to a PCS comprising a rod with a paraffin wrap and placed into a separate centrifuge container, one plant-PCS assembly per container, similar to that shown in FIG. 7.
Once attached to their respective PCSs and placed into their respective centrifuge containers, a solution comprising 1250 ppm colchicine was added to each container until each plant was submerged at least up until the SAM of every plant was submerged. All samples were then centrifuged with the SAMs submerged in treatment solution for 3 min at 50 g.
Following the first centrifugation, the treatment solution was drained from each centrifugation container, and then each sample was subjected to an unsubmerged spin for 3 minutes at one of six different rates, ranging from 340 g to 2000 g, as shown in Table 9.
Following the second centrifugation, the plants were removed from the centrifugation container and rinsed with water to remove any remaining colchicine solution, and then transplanted into 10-inch pots and tended in a growth room under standard maize growing conditions until they grew to maturity and flowered.
Self-pollinations were attempted with each plant that survived the treatment to produce pollen and an ear, and pollination success as determined within each sample.

[2] = system: haploid corn seedlings (SAM); experiment: Example 3: serial (submerged then unsubmerged) centrifugation with colchicine, survival and doubling success; type: in vivo; settings: for DE / Fert. Success / Initial Survival / Poll. Success: 1000 ppm colchicine, submerged 50 g 3 min then unsubmerged 335 g 3 min
Text: Seeds of 5 different F1 hybrid-derived haploid corn lines were randomly-selected and germinated in a greenhouse. The resulting seedlings were removed from soil or growth media at the V1-V3 growth stage and the soil or growth media rinsed from the plants with water. Seedlings were then aligned and assembled along with several rods in a bundled PCS similar to what is shown in FIG. 9 and a plant treatment solution comprising 1000 ppm colchicine was poured into the container such that the solution submerged the SAM of each plant and then the entire sample was centrifuged at 50 g for 3 min while the SAMs remained submerged in the plant treatment agent.
Following the first centrifugation, the plant treatment solution was decanted and the seedlings subjected to an unsubmerged centrifugation at 335 g for 3 min.
(§1) Following the second centrifugation, the plants were removed from the centrifugation container and rinsed with water to remove any remaining colchicine solution, and then recovered and tended in a light, humidity, and temperature-controlled greenhouse for several days before being transplanted to a nursery greenhouse.
The control sample received no colchicine exposure, but was otherwise handled identically as the experimental samples. During the subsequent growth of the plants, the initial survival, pollination success, fertilization success, final survival, and doubling efficiency was determined within each sample as described in Example 2.

[3] = system: haploid seedlings derived from 91DUQ1 or 83IDI1 (SAM); experiment: Example 9: serial centrifugation with colchicine and incubation between spins; type: in vivo, maize; settings: submerged 100 g 3 min, unsubmerged 340 g 3 min, ear with at least four kernels
Text: F1 hybrid-derived haploid seedlings derived from either female inbred line 91DUQ1 or male inbred line 83IDI1 were germinated in soil in a greenhouse in standard maize growing conditions and grown to the V1 growth stage (1 week after planting). Next, the seedlings were removed from the soil, rinsed with water to remove residual soil form the plants, and then divided into 4 samples comprising several seedlings of each germplasm per sample.
Each sample was then bundled in a PCS comprising an aluminum foil wrap and wooden rods for support, similar to that shown in FIG. 9. Once bundled in a PCS, each sample was contacted by a plant treatment solution comprising either 600 ppm or 800 ppm colchicine such that the SAM of each plant was entirely submerged, and then each sample was centrifuged at 100 g for 3 min with the SAMs submerged in the reserve doubling agent during centrifugation.
Following the submerged centrifugation, plants were removed from the centrifuge container and while some doubling solution from the first centrifugation remained clinging to the plants, the roots and bottom half of each stem were rinsed in water to remove any doubling agent from that end of the plant. Then each bundled sample was incubated in an enclosed, humid environment for one of the four incubation periods listed Table 8.
Following each respective incubation period, the bundled samples were removed from the humid enclosure and subjected to an unsubmerged centrifugation at 340 g for 3 min, wherein the only doubling solution that contacted the plants was that which remained on the plants from the previous submerged centrifugation, i.e. no additional doubling solution was added to the plants after the first centrifugation.
as §1, with “green house where they were tended under standard maize growing conditions until they grew to maturity and flowered.” for “greenhouse.”
Self-pollinations were attempted with each plant that survived the treatment to produce pollen and final doubling efficiencies were determined within each treatment. In this experiment, the doubling efficiency within each treatment sample was calculated by dividing the number of plants of each treatment sample that produced at least one ear comprising at least four kernels by the total number of plants subjected to that set of treatment conditions.

[4] = bundled PCS, unsubmerged 340 g 3 min
[5] = individually-wrapped PCS, unsubmerged 340 g 3 min
[6] = individually-wrapped PCS, unsubmerged 500 g 3 min
[7] = individually-wrapped PCS, unsubmerged 750 g 3 min
[8] = individually-wrapped PCS, unsubmerged 1000 g 3 min
[9] = individually-wrapped PCS, unsubmerged 2000 g 3 min

In the case of `COc1cc2c(c(OC)c1OC)-c1ccc(OC)c(=O)cc1[C@@H](NC(C)=O)CC2` [colchicine], the DE [1, 4] is reported as 68.9%, the “Fertilization Success” value [1, 4] is reported as 85.0% and the Pollination success [1, 4] is reported as 90.0%. The “Survival Rate” value [1, 4] was 90.0%, the DE [1, 5] was 89.3% and the “Fertilization Success” value [1, 5] was 96.2%. For the same compound, the Pollination success [1, 5] was 100.0%, the “Survival Rate” value [1, 5] was 92.9% and the DE [1, 6] was 96.4%. For the same compound, the “Fertilization Success” value [1, 6] was 100.0%, the Pollination success [1, 6] was 100.0% and the “Survival Rate” value [1, 6] was 96.4%. The DE [1, 7] was 83.3%, the “Fertilization Success” value [1, 7] was 95.2% and the Pollination success [1, 7] was 100.0%. For the same compound, the “Survival Rate” value [1, 7] was 87.5%, the DE [1, 8] was 85.7% and the “Fertilization Success” value [1, 8] was 100.0%. For the same compound, the Pollination success [1, 8] was 92.3%, the “Survival Rate” value [1, 8] was 92.9% and the DE [1, 9] was 63.6%. The “Fertilization Success” value [1, 9] was 87.5%, the Pollination success [1, 9] was 100.0% and the “Survival Rate” value [1, 9] was 72.7%. For the same compound, the DE ([2]; Ave: of five lines) was 72%, the “Fert. Success” value ([2]; Ave: of five lines) was 94% and the “Initial Survival” value ([2]; Ave: of five lines) was 93%. For the same compound, the “Poll. Success” value ([2]; Ave: of five lines) was 85%, the DE ([2]; line F1004) was 57% and the “Fert. Success” value ([2]; line F1004) was 100%. For the same compound, the “Initial Survival” value ([2]; line F1004) was 93%, the “Poll. Success” value ([2]; line F1004) was 62% and the DE ([2]; line F1045) was 75%. For the same compound, the “Fert. Success” value ([2]; line F1045) was 100%, the “Initial Survival” value ([2]; line F1045) was 100% and the “Poll. Success” value ([2]; line F1045) was 75%. For the same compound, the DE ([2]; line F1095) was 80%, the “Fert. Success” value ([2]; line F1095) was 92% and the “Initial Survival” value ([2]; line F1095) was 100%. The “Poll. Success” value ([2]; line F1095) was 87%, the DE ([2]; line F1118) was 60% and the “Fert. Success” value ([2]; line F1118) was 86%. The “Initial Survival” value ([2]; line F1118) was 70%, the “Poll. Success” value ([2]; line F1118) was 100% and the DE ([2]; line F1900) was 90%. For the same compound, the “Fert. Success” value ([2]; line F1900) was 90%, the “Initial Survival” value ([2]; line F1900) was 100% and the “Poll. Success” value ([2]; line F1900) was 100%. For the same compound, the “individuals that produced pollen and silks” value ([2]; minimum over all five inbred samples receiving the experimental treatment) was “at least 62%”, the “increase in overall DE as compared to controls” value ([2]; samples receiving serial centrifugation with 1000 ppm colchicine vs controls) was 67% and the DE ([3]; 600 ppm colchicine, incubation 3 min) was 0.41. It also gave a DE ([3]; 600 ppm colchicine, incubation 3 hrs) of 0.78, a DE ([3]; 800 ppm colchicine, incubation 3 min) of 0.66 and a DE ([3]; 800 ppm colchicine, incubation 3 hrs) of 0.79.
